From patent US9597391B2, “Cyclic-dinucleotides and its conjugates as adjuvants and their uses in pharmaceutical compositions” (HELMHOLTZ_ZENTRUM FUER INFEKTIONSFORSCHUNG GMBH, priority 2005, dated 2017) come the findings set out here.

Format in all cases: in vivo
For assay [1], the system named is BALB/c (H-2d) mice. Briefly: Serum β-gal-specific IgG ELISA after i.n. or s.c. immunization with β-gal plus adjuvant. The note with it: i.n., β-gal 30 μg/dose with or without adjuvant 10 μg; end point titers (FIG. 11; FIG. 2). The method, then: Experimental protocol: six-eight weeks-old female BALB/c (H-2d) mice were purchased from Harlan Winkelmann GmbH (Borchen, Germany) and treated in accordance with local and European Community guidelines. Groups of 5 mice each were immunized on day 1, 14 and 28 with 30 μg of β-gal (Boehringer, Mannheim, Germany), alone or as an admixture with 10 μg c-diGMP or with 10 μpg c-diAMP. For intranasal (i.n.) immunization, 10 μl were applied to each naris, whereas for the s.c. injection β-gal with or without c-diGMP or c-diAMP was resuspended in a volume of 20 μl PBS per animal. Serum samples were collected at day 38 after immunization and stored at −20° C. prior to determination of β-gal-specific antibodies. 96-well Nunc-Immuno MaxiSorp assay plates (Nunc, Roskilde, Denmark) were coated with 100 μl of β-gal (Boehringer, Mannheim, Germany) at 5 μg/ml in 0.05 M carbonate buffer (pH 8.2) per well. Serial two-fold dilutions of sera in PBS with 1% BSA and 0.05% Tween 20 were added (100 μl/well), and plates incubated for 16h at 37° C. After washing, biotinylated γ-chain-specific goat anti-mouse IgG (Sigma Chemie, Deisenhofen, Germany) was added, and plates were incubated for an additional 1 h at 37° C. After four washes, 100 μl of peroxidase-conjugated streptavidin (Pharmingen) was added to cells and plates incubated at 37° C. for 30 min. After four washes, reactions were developed with ABTS in 0.1 M citrate-phosphate buffer (pH 4.35) containing 0.01% H2O2. Results for c-diGMP are shown as OD405 values after serial two-fold dilutions (FIG. 2). […] The effect of c-diGMP as an adjuvant was independent of the route of administration.
In contrast, in the presence of c-diAMP, i.n. administration of β-gal induced very high titers of specific IgG in all mice with titers higher than 500,000 (FIG. 11).
In view of the above in vitro results, additional in vivo studies have been conducted. […] Thus, the capacity of c-diGMP and c-diAMP, respectively, to stimulate efficient humoral immune responses was evaluated, by determining the serum titers of β-gal-specific antibodies in vaccinated mice.

The subject of assay [2] is BALB/c (H-2d) mice. Nature of the assay: β-gal-specific IgA in lung and vaginal lavages of immunized mice. The note with it: i.n. immunization, day 38, versus β-gal alone (FIG. 4, FIG. 5). The method, then:
Experimental protocol: at day 38, mice were sacrificed and the final sampling was performed. Vaginal and lung lavages were obtained by flushing the organs with 1 ml of PBS supplemented with 50 mM EDTA, 0.1% BSA, and 10 mM PMSF. Lavages were then centrifuged to remove debris (10 min at 3000×g), and supernatant fluids were stored at −20° C. To determine the concentration of total IgA present in the lung and vaginal lavages, serial dilutions of the corresponding samples were incubated in microtiter plates that were previously coated with goat anti-mouse IgA (Sigma Chemie), as capture antibodies (100 μl/well). Serial dilutions of purified mouse IgA (Sigma Chemie) were used to generate a standard curve.
To investigate the capacity of c-diGMP and c-diAMP, respectively, to stimulate mucosal responses against antigens co-administered by the i.n. and s.c. route, the production of β-gal-specific IgA in lung was analyzed (FIG. 5 for c-diAMP and FIG. 4 for c-diGMP) from immunized animals, immunized according to the protocol described in Example 2.

Assay [3] relates to spleen cells. Briefly: [3H]thymidine proliferation of spleen cells from vaccinated mice restimulated in vitro with β-gal. Particulars: day 38, in vitro restimulation with β-gal. The method, then: Experimental protocol: Spleens were removed and pooled for analysis of cellular immune responses. Cells were grown in RPMI 1640 supplemented with 10% fetal calf serum, 100 U/ml of penicillin, 50 μg/ml of streptomycin, 5×10^−5 M 2-mercaptoethanol and 1 mM L-glutamine (GIBCO BRL, Karlsruhe, Germany) and maintained at 37° C. in a humidified 5% CO2 atmosphere. Spleen cell suspensions were adjusted to 5×10^6 cells/ml in complete medium, cells were seeded with 100 μl per well in a flat-bottomed 96-well microtiter plate (Nunc) and plates were incubated for 4 days in the presence of different concentrations of soluble β-gal. That is, T cell mediated immune responses were investigated at day 38 by measuring the proliferation after in vitro restimulation with β-Gal of cells which have been recovered from spleens before. Said spleen cells were obtained from vaccinated mice—said mice where immunized as described in Example 2—and incubated in the presence of different concentrations of the soluble β-Gal antigen. Each concentration was tested in quadruplicates. During the final 18 h of culture, 1 μCi of [3H]thymidine (Amersham International, Freiburg, Germany) was added to each well. Cells were then harvested on paper filters (Filtermat A; Wallac, Freiburg, Germany) by using a cell harvester (Inotech, Wohlen, Switzerland), and the amount of incorporated [3H]thymidine into the DNA of proliferating cells was determined by a β-scintillation counter (Wallac 1450, Micro-Trilux). The results are expressed as the arithmetic mean of [^3H]thymidine uptake in cpm.
Thirty eight days following vaccination, spleens cells were purified, re-stimulated in vitro in the presence of various amounts of β-galactosidase and their proliferative capacity was estimated by measuring the incorporation of [3H]thymidine into their DNA using a β-scintillation counter.

Assay [4] relates to spleen cells. Briefly: ELISPOT of cytokine producing spleen cells from vaccinated mice. Particulars: i.n.; restimulation with CD8 epitope peptide (FIG. 10). The method, then:
Experimental protocol: Spleens from vaccinated mice were removed and pooled for analysis of cellular immune responses. The protocol for vaccination was identical to the protocol described in Example 2. Cells were grown in RPMI 1640 supplemented with 10% fetal calf serum, 100 U/ml of penicillin, 50 μg/ml of streptomycin, 5×10^−5 M 2-mercaptoethanol and 1 mM L-glutamine (GIBCO BRL, Karlsruhe, Germany) and maintained at 37° C. in a humidified 5% CO2 atmosphere. […]
For coating ELISPOT plates, said plates were incubated with 100 μl/well of purified capture antibody (10 μg/ml in coating buffer) at 4° C. overnight. After 6× washing steps, the plates were blocked with 200 μl/well of complete RPMI-1640 at room temperature for 1 hour. The activated cells were seeded at 100 μl per well and incubate at 37° C., in a 5% CO2 humidified incubator for 24 hours or 48h hours. After 5× washing steps with washing buffer and 1× step with distilled water, 100 μl/well of the biotinylated detection antibody with a concentration of 1 μg/ml in Assay Diluent was added and incubated at room temperature for 2 hrs. After further washing steps 100 μl/well of the AV-HRP at 1/1000 dilution in Assay Diluent was added and incubated at room temperature for 30 minutes. After further washing steps 100 μl/well of AEC Substrate Solution was added and developed at room temperature for 10-60 minutes until visible spots appeared. After washing steps with (3×) with 200 μl/well distilled water, the plates were air-dried and analyzed by counting the spots by an ELISPOT reader. Each concentration was tested in triplicates.

As to “β-gal: soluble model antigen β-galactosidase (Boehringer), given alone as comparator without adjuvant”, the “β-gal specific IgG titer in sera, i.n. administration” value with BALB/c (H-2d) mice [1] is on record as “very low antibody titers”. Moreover, the “β-gal-specific IgA in lung lavages” value in the assay with BALB/c (H-2d) mice [2] is “weak production”. In addition, the “proliferation of spleen cells, i.n. immunization” value with spleen cells [3] (i.n., low amounts of antigen (FIG. 6)) was “failed to induce detectable cellular proliferation”. In the assay with spleen cells [3] (s.c., [3H]thymidine (FIG. 6)), the “proliferation of spleen cells, s.c. immunization” value is on record as “significant proliferative response”. In addition, the “IFNγ producing cells, i.n. vaccination” value in the assay with spleen cells [4] was “scarcely detectable”.
